Data on 41 compounds can be found in ChEMBL document CHEMBL5137049, “Discovery of a Novel Small-Molecule Inhibitor Disrupting TRBP-Dicer Interaction against Hepatocellular Carcinoma via the Modulation of microRNA Biogenesis” (J Med Chem, 2022).

The target in assay [1] is T1, Programmed cell death protein 4 (Homo sapiens) (UniProt Q53EL6).
T1 sequence (whole entry): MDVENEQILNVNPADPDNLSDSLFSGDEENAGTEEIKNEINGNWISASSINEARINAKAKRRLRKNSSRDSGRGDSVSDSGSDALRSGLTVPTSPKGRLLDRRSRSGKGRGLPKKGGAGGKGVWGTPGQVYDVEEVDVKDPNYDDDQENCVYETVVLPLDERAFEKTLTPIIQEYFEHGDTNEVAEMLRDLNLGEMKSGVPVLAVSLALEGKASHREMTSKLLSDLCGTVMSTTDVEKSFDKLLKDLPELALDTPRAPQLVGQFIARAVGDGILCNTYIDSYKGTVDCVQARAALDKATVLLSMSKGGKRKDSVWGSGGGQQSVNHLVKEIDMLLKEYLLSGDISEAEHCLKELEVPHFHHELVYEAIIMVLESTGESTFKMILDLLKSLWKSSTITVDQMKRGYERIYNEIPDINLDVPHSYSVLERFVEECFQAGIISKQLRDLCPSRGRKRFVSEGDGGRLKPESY
Briefly: Inhibition of PDCD4 in human HeLa cells tranfected with pCI-neo-luciferase-PDCD4 3'-UTR plasmid assessed as fold change in luciferase signal by measuring relative luciferase unit by luciferase reporter assay. The class given is cell-based.

In the next assay the test system is HeLa. As to the kind of experiment: Inhibition of microRNA in human HeLa cells transfected with pCI-neo-luciferase-miR-21 plasmid assessed as change in luciferase signal by measuring relative luciferase unit by luciferase reporter assay. The class given is cell-based.
A further assay relates to HCCLM3. Briefly: Antiproliferative activity against human HCCLM3 cells assessed as inhibition of cell growth incubated for 72 hrs by CellTiter-luminescence assay. The assay is classed as functional, cell-based.
Assay [2] deals with SK-HEP1. As to the kind of experiment: Antiproliferative activity against human SK-HEP1 cells assessed as inhibition of cell growth incubated for 72 hrs by CellTiter-luminescence assay. The assay is classed as functional, cell-based.
Assay [3] has as its system SK-HEP1. As to the kind of experiment: Inhibition of cell migration in human SK-HEP1 cells at 10 to 25 uM measured after 24 hrs by crystal violet staining based transwell assay. The class given is functional. To be noted: dose 10-25 µM.
Assay [4] in a line: Inhibition of microRNA in human HeLa cells transfected with pCI-neo-luciferase-miR-21 plasmid assessed as change in luciferase signal incubated for 24 hrs by luciferase reporter assay. The assay is classed as cell-based.

Calls of active or inactive are those of the source. No cut-off for these calls is given here.

For `COc1ccc(S(=O)(=O)N(Cc2nc(-c3ccc(Cl)cc3)oc2C)[C@@H](C(=O)O)C(C)C)cc1`, the results for the RLU (in assay [1]; in the assay on HeLa) were 0.97 and 1.06, respectively.

Consider `COC(=O)[C@@H](C(C)C)N(Cc1nc(-c2ccc(Cl)cc2)oc1C)S(=O)(=O)c1ccc(C)cc1`, for which the RLU in assay [1] came to 1.08; in the assay with HeLa, 1.03.

With `COc1ccc(S(=O)(=O)N(Cc2nc(-c3ccccc3)oc2C)[C@@H](C(=O)NO)C(C)C)cc1`, the RLU in assay [1] came to 0.98; in the assay on HeLa, 1.02.

Take `CCOC(=O)c1nc(-c2ccc(C)cc2)oc1C`: the outcome in the assay with HCCLM3 and with SK-HEP1 [2] was Active. Further, the inhibition result in the assay with SK-HEP1 [3] is “Active”. For the same compound, the EC50 in assay [4] stood at 2.99 µM.

Take `COc1ccc(S(=O)(=O)N(Cc2nc(-c3cc(OC)c(OC)c(OC)c3)oc2C)[C@@H](C(=O)NO)C(C)C)cc1`: the RLU in assay [1] was found to be 0.94; with HeLa, 1.06.

For `COc1ccc(S(=O)(=O)N(Cc2nc(-c3ccc(OC)c(OC)c3)oc2C)[C@@H](C(=O)O)C(C)C)cc1`, the values for the RLU (in assay [1]; with HeLa) were 0.86 and 1.02, respectively.

As for `COc1ccc(-c2nc(CN([C@@H](C(=O)NO)C(C)C)S(=O)(=O)c3ccc(OC)cc3)c(C)o2)cc1`, the RLU in assay [1] is 1.02; with HeLa, 1.01.

With `Cc1oc(-c2ccccc2)nc1CCl`, the RLU amounted to 1.03 in assay [1] and 1.13 in the assay with HeLa.

Regarding `COc1ccc(S(=O)(=O)N(Cc2nc(-c3ccc(OCc4ccccc4)cc3)oc2C)[C@@H](C(=O)O)C(C)C)cc1`, the RLU in assay [1] turned out to be 1.65; in the assay on HeLa, 2.47.

On to `CCOC(=O)c1nc(-c2ccc(Cl)cc2)oc1C`, for which the EC50 in assay [4] is 7.34 µM.

As to `COc1ccc(-c2nc(CN([C@@H](C(=O)O)C(C)C)S(=O)(=O)c3ccc(C)cc3)c(C)o2)cc1OC`, the RLU in assay [1] worked out at 0.97; in the assay on HeLa, 0.98.

On to `COC(=O)[C@@H](C(C)C)N(Cc1nc(-c2ccc(OCc3ccccc3)cc2)oc1C)S(=O)(=O)c1ccc(OC)cc1`, for which the RLU in assay [1] turned out to be 1.32; with HeLa, 1.58.

As to `CCOC(=O)c1nc(-c2ccccc2)oc1C`, the RLU came to 1.07 in assay [1] and 1.14 with HeLa.

Consider `COC(=O)[C@@H](C(C)C)N(Cc1nc(-c2ccc([N+](=O)[O-])cc2)oc1C)S(=O)(=O)c1ccc(OC)cc1`, for which the RLU in assay [1] turned out to be 0.96; in the assay on HeLa, 0.98.

For `CCOC(=O)c1nc(-c2cc(OC)c(OC)c(OC)c2)oc1C`, the RLU in assay [1] amounted to 1.09; in the assay on HeLa, 1.13.

`COc1ccc(S(=O)(=O)N(Cc2nc(-c3ccccc3)oc2C)[C@@H](C(=O)O)C(C)C)cc1`: the values for the RLU (in assay [1]; with HeLa) were 1.01 and 1.05, respectively.

On to `CCOC(=O)c1nc(-c2ccc(OC)c(OC)c2)oc1C`, for which the RLU was 1.17 in assay [1] and 1.35 in the assay with HeLa.

Take `COC(=O)[C@@H](C(C)C)N(Cc1nc(-c2ccc(Cl)cc2)oc1C)S(=O)(=O)c1ccc(OC)cc1`: the RLU amounted to 0.93 in assay [1] and 1.12 in the assay with HeLa.

On to `COC(=O)[C@@H](C(C)C)N(Cc1nc(-c2ccc(OC)cc2)oc1C)S(=O)(=O)c1ccc(C)cc1`, for which the figures for the RLU (in assay [1]; in the assay on HeLa) were 1.04 and 1.06, respectively.

In the case of `Cc1ccc(S(=O)(=O)N(Cc2nc(-c3ccc(Cl)cc3)oc2C)[C@@H](C(=O)O)C(C)C)cc1`, the values for the RLU (in assay [1]; in the assay on HeLa) were 1.03 and 1.14, respectively.

For the compound `COc1ccc(S(=O)(=O)N(Cc2nc(-c3cc(OC)c(OC)c(OC)c3)oc2C)[C@@H](C(=O)O)C(C)C)cc1`, the RLU in assay [1] is 1.02; in the assay with HeLa it was 1.08.

`COC(=O)[C@H](NS(=O)(=O)c1ccc(OC)cc1)C(C)C`: the RLU in assay [1] came out at 1.06; in the assay with HeLa, 1.02.

As to `COC(=O)[C@@H](C(C)C)N(Cc1nc(-c2ccc(OC)c(OC)c2)oc1C)S(=O)(=O)c1ccc(OC)cc1`, the RLU in assay [1] worked out at 0.95; in the assay on HeLa, 1.06.

As for `COc1ccc(-c2nc(CN([C@@H](C(=O)O)C(C)C)S(=O)(=O)c3ccc(OC)cc3)c(C)o2)cc1`, the RLU in assay [1] is 1; with HeLa, 1.04.

`COc1ccc(-c2nc(CCl)c(C)o2)cc1OC`: the RLU in assay [1] was determined as 1.06; with HeLa, 1.3.

For `COc1cc(-c2nc(CCl)c(C)o2)cc(OC)c1OC`, the RLU in assay [1] was determined as 2.01; in the assay on HeLa, 1.09.

On to `COC(=O)[C@@H](C(C)C)N(Cc1nc(-c2ccccc2)oc1C)S(=O)(=O)c1ccc(OC)cc1`, for which the RLU in assay [1] was 1.09; in the assay on HeLa, 0.96.

For `COC(=O)[C@H](NS(=O)(=O)c1ccc(C)cc1)C(C)C`, the RLU in assay [1] came to 1.03; in the assay with HeLa, 1.04.

Turning to `Cc1oc(-c2ccc([N+](=O)[O-])cc2)nc1CCl`, the RLU turned out to be 1.11 in assay [1] and 1.2 in the assay with HeLa.

Regarding `COC(=O)[C@@H](C(C)C)N(Cc1nc(-c2ccc(OC)cc2)oc1C)S(=O)(=O)c1ccc(OC)cc1`, the RLU in assay [1] worked out at 1.03; in the assay with HeLa it was 0.99.

In the case of `COC(=O)[C@@H](C(C)C)N(Cc1nc(-c2cc(OC)c(OC)c(OC)c2)oc1C)S(=O)(=O)c1ccc(OC)cc1`, the results for the RLU (in assay [1]; in the assay on HeLa) were 1.03 and 1.08, respectively.

Take `COc1ccc(-c2nc(CCl)c(C)o2)cc1`: the RLU in assay [1] was 1.05; in the assay on HeLa, 1.12.

Take `COC(=O)[C@@H](C(C)C)N(Cc1nc(-c2ccc(OC)c(OC)c2)oc1C)S(=O)(=O)c1ccc(C)cc1`: the RLU stood at 0.95 in assay [1] and 1.08 in the assay with HeLa.

In the case of `COc1ccc(S(=O)(=O)N(Cc2nc(-c3ccc(OC)c(OC)c3)oc2C)[C@@H](C(=O)NO)C(C)C)cc1`, the RLU turned out to be 0.86 in assay [1] and 1.02 with HeLa.

With `Cc1oc(-c2ccc(Cl)cc2)nc1CCl`, the RLU worked out at 1.11 in assay [1] and 1.22 with HeLa.

`CCOC(=O)c1nc(-c2ccc(-c3ccccc3)cc2)oc1C`: the outcome in the assay with HCCLM3 and with SK-HEP1 [2] was Active. Further, the inhibition entry in the assay with SK-HEP1 [3] was “Active”. The EC50 in assay [4] amounted to 1.85 µM.

Turning to `CCOC(=O)c1nc(-c2ccc(Br)cc2)oc1C`, the EC50 in assay [4] amounted to 5.98 µM.

Consider `COc1ccc(-c2nc(CN([C@@H](C(=O)O)C(C)C)S(=O)(=O)c3ccc(C)cc3)c(C)o2)cc1`, for which the figures for the RLU (in assay [1]; in the assay on HeLa) were 1.05 and 1.12, respectively.

As for `Cc1oc(-c2ccc(-c3ccccc3)cc2)nc1C(=O)OCCO`, the outcome in the assay on HCCLM3 and with SK-HEP1 [2] was Active. In addition, in the assay on SK-HEP1 [3], the inhibition result is “Active”. Also, the concentration for a half-maximal effect (EC50) in assay [4] came out at 7.44 µM.

Take `COc1ccc(S(=O)(=O)N(Cc2nc(-c3ccc([N+](=O)[O-])cc3)oc2C)[C@@H](C(=O)O)C(C)C)cc1`: the RLU was 1.02 in assay [1] and 1.17 in the assay with HeLa.

With `Cc1oc(-c2ccc(OCc3ccccc3)cc2)nc1CCl`, the figures for the RLU (in assay [1]; in the assay on HeLa) were 2.01 and 4.77, respectively.
